Measured values published in paper PMC10082216 (Nature Communications, 2023).
Where two headings read alike, the source gives them in different places.

Assay: TD-6450 phase I clinical study (SAD/MAD): pharmacokinetics
Format: in vivo, human
Conditions: human
Procedure: Primary and secondary outcomes were pre-defined as follows: Safety and tolerability as a primary outcome, pharmacokinetics as a secondary outcome. Safety and tolerability were evaluated using standard measures, including adverse event (AE) monitoring, clinical laboratory tests (hematology, serum chemistry, coagulation, and urinalysis), vital signs, physical examinations, and 12-lead electrocardiograms (ECGs). […]
This study was conducted in two parts, Part A (SAD) and Part B (MAD). For the Part A, the age of enrolled subjects ranged from 20 to 60 years, with a mean age range of 32.1 to 46.2 years. Most subjects were male (73 total subjects) and most were white (55 subjects) or black (22 subjects). For Part B of the study, ages ranged from 23 to 60 years with a similar mean age across treatment groups. Most subjects were male (25 total subjects) and all were either white (18 subjects) or black (12 subjects). For each part of the study, the mean body mass index (BMI) and creatinine clearance were similar across treatment groups. […] Part A: Healthy subjects were sequentially enrolled and randomly assigned to each dose cohort (up to 10 dose-ascending cohorts were planned, including a fed arm in the food effect cohort) to receive either a single dose of TD-6450 or placebo. For each dose cohort, 8 subjects were randomized in a 3:1 ratio (6 subjects received TD-6450 and 2 subjects received placebo). The starting dose of TD-6450 was 0.5 mg with a planned maximum dose of 1000 mg. Upon review of the 500-mg cohort PK data, the decision was made to not escalate to the 1000-mg cohort because of exposure saturation at ≥ 500 mg. The following doses were administered: 0.5 mg, 1.5 mg, 5 mg, 15 mg, 30 mg, 60 mg, 120 mg, 240 mg, and 500 mg. Part B: Healthy subjects were sequentially enrolled in 3 ascending dose cohorts (TD-6450 60 mg, 120 mg, and 240 mg) and randomly assigned to receive either TD-6450 or placebo as once daily doses for 14 days. For each dose cohort, 10 subjects were randomized in a 4:1 ratio (8 subjects received TD-6450 and 2 subjects received placebo). Blinded safety, tolerability, and available PK data after each dose cohort were reviewed by the Safety Data Review Committee (SDRC) before escalation to the next dosing cohort for both part A and B. Subjects of the clinical study were randomly assigned to each cohort. Randomizations codes were assigned to the subjects. All study subjects, study investigators, and the sponsor’s staff involved in the conduct of the study were blinded to treatment assignment. The only personnel who had access to the randomization code before database lock were: The pharmacist or pharmacy staff member who prepared drug or placebo capsules for administration to the subject according to the randomization code and the bioanalytical contract laboratory that analyzed the PK samples (plasma and urine).

## CNC(=O)N1C[C@@H](C)N(c2ccc(C(=O)Nc3ccc(-c4ccc(-c5c[nH]c([C@@H]6CCCN6C(=O)[C@@H](NC(=O)OC)C(C)C)n5)cc4)c(OC(F)(F)F)c3)cn2)C[C@@H]1C [TD-6450]
female, plasma, oral, 15 mg, Female subjects, SAD arm NCT02022306, Dose 15.00, 144 Hours, read-out: Concentration
  concentration at 144 h: 4 ng/mL
female, plasma, oral, 15 mg, Female subjects, SAD arm NCT02022306, Dose 15.00, 168 Hours, read-out: Concentration
  concentration at 168 h: 3.58 ng/mL
female, plasma, oral, 30 mg, Female subjects, SAD arm NCT02022306, Dose 30.00, 3 Hours, read-out: Concentration
  concentration at 3 h: 24.8 ng/mL
female, plasma, oral, 30 mg, Female subjects, SAD arm NCT02022306, Dose 30.00, 4 Hours, read-out: Concentration
  concentration at 4 h: 40.6 ng/mL
female, plasma, oral, 30 mg, Female subjects, SAD arm NCT02022306, Dose 30.00, 6 Hours, read-out: Concentration
  concentration at 6 h: 70.6 ng/mL
female, plasma, oral, 30 mg, Female subjects, SAD arm NCT02022306, Dose 30.00, 8 Hours, read-out: Concentration
  concentration at 8 h: 69.5 ng/mL
female, plasma, oral, 30 mg, Female subjects, SAD arm NCT02022306, Dose 30.00, 12 Hours, read-out: Concentration
  concentration at 12 h: 45.3 ng/mL
female, plasma, oral, 30 mg, Female subjects, SAD arm NCT02022306, Dose 30.00, 15 Minutes, read-out: Concentration
  concentration at 15 min: 0 ng/mL
female, plasma, oral, 30 mg, Female subjects, SAD arm NCT02022306, Dose 30.00, 24 Hours, read-out: Concentration
  concentration at 24 h: 34.1 ng/mL
female, plasma, oral, 30 mg, Female subjects, SAD arm NCT02022306, Dose 30.00, 48 Hours, read-out: Concentration
  concentration at 48 h: 22.3 ng/mL
female, plasma, oral, 30 mg, Female subjects, SAD arm NCT02022306, Dose 30.00, 72 Hours, read-out: Concentration
  concentration at 72 h: 16.1 ng/mL
female, plasma, oral, 30 mg, Female subjects, SAD arm NCT02022306, Dose 30.00, 96 Hours, read-out: Concentration
  concentration at 96 h: 10.8 ng/mL
female, plasma, oral, 30 mg, Female subjects, SAD arm NCT02022306, Dose 30.00, 120 Hours, read-out: Concentration
  concentration at 120 h: 9.27 ng/mL
female, plasma, oral, 30 mg, Female subjects, SAD arm NCT02022306, Dose 30.00, 144 Hours, read-out: Concentration
  concentration at 144 h: 6.93 ng/mL
female, plasma, oral, 30 mg, Female subjects, SAD arm NCT02022306, Dose 30.00, 168 Hours, read-out: Concentration
  concentration at 168 h: 5.12 ng/mL
female, plasma, oral, 60 mg, Female subjects, SAD arm NCT02022306, Dose 60.00, 1 Hour, read-out: Concentration
  concentration at 1 h: 7.46 ng/mL
female, plasma, oral, 60 mg, Female subjects, SAD arm NCT02022306, Dose 60.00, 2 Hours, read-out: Concentration
  concentration at 2 h: 114 ng/mL
female, plasma, oral, 60 mg, Female subjects, SAD arm NCT02022306, Dose 60.00, 3 Hours, read-out: Concentration
  concentration at 3 h: 70.5 ng/mL
female, plasma, oral, 60 mg, Female subjects, SAD arm NCT02022306, Dose 60.00, 4 Hours, read-out: Concentration
  concentration at 4 h: 94.5 ng/mL
female, plasma, oral, 60 mg, Female subjects, SAD arm NCT02022306, Dose 60.00, 6 Hours, read-out: Concentration
  concentration at 6 h: 109 ng/mL
female, plasma, oral, 60 mg, Female subjects, SAD arm NCT02022306, Dose 60.00, 8 Hours, read-out: Concentration
  concentration at 8 h: 87.4 ng/mL
female, plasma, oral, 60 mg, Female subjects, SAD arm NCT02022306, Dose 60.00, 12 Hours, read-out: Concentration
  concentration at 12 h: 60.5 ng/mL
female, plasma, oral, 60 mg, Female subjects, SAD arm NCT02022306, Dose 60.00, 15 Minutes, read-out: Concentration
  concentration at 15 min: 0 ng/mL
female, plasma, oral, 60 mg, Female subjects, SAD arm NCT02022306, Dose 60.00, 24 Hours, read-out: Concentration
  concentration at 24 h: 38.9 ng/mL
female, plasma, oral, 60 mg, Female subjects, SAD arm NCT02022306, Dose 60.00, 30 Minutes, read-out: Concentration
  concentration at 30 min: 0.74 ng/mL
female, plasma, oral, 60 mg, Female subjects, SAD arm NCT02022306, Dose 60.00, 48 Hours, read-out: Concentration
  concentration at 48 h: 29.3 ng/mL
female, plasma, oral, 60 mg, Female subjects, SAD arm NCT02022306, Dose 60.00, 72 Hours, read-out: Concentration
  concentration at 72 h: 22.4 ng/mL
female, plasma, oral, 60 mg, Female subjects, SAD arm NCT02022306, Dose 60.00, 96 Hours, read-out: Concentration
  concentration at 96 h: 17.2 ng/mL
female, plasma, oral, 60 mg, Female subjects, SAD arm NCT02022306, Dose 60.00, 120 Hours, read-out: Concentration
  concentration at 120 h: 12.8 ng/mL
female, plasma, oral, 60 mg, Female subjects, SAD arm NCT02022306, Dose 60.00, 144 Hours, read-out: Concentration
  concentration at 144 h: 11.1 ng/mL
female, plasma, oral, 60 mg, Female subjects, SAD arm NCT02022306, Dose 60.00, 168 Hours, read-out: Concentration
  concentration at 168 h: 8.61 ng/mL
In vivo, 1.5 mg, Male subjects, SAD arm NCT02022306, Dose 1.50, 3 Hours, read-out: Concentration
  concentration at 3 h: 1.48 ng/mL
In vivo, 1.5 mg, Male subjects, SAD arm NCT02022306, Dose 1.50, 4 Hours, read-out: Concentration
  concentration at 4 h: 1.92 ng/mL
In vivo, 1.5 mg, Male subjects, SAD arm NCT02022306, Dose 1.50, 6 Hours, read-out: Concentration
  concentration at 6 h: 1.07 ng/mL
In vivo, 5 mg, Female subjects, SAD arm NCT02022306, Dose 5.00, 120 Hours, read-out: Concentration
  concentration at 120 h: 1.07 ng/mL
In vivo, 5 mg, Male subjects, SAD arm NCT02022306, Dose 5.00, 48 Hours, read-out: Concentration
  concentration at 48 h: 1.81 ng/mL
In vivo, 5 mg, Male subjects, SAD arm NCT02022306, Dose 5.00, 120 Hours, read-out: Concentration
  concentration at 120 h: 1.48 ng/mL
In vivo, 15 mg, Male subjects, SAD arm NCT02022306, Dose 15.00, 168 Hours, read-out: Concentration
  concentration at 168 h: 2.59 ng/mL
In vivo, 30 mg, Male subjects, SAD arm NCT02022306, Dose 30.00, 2 Hours, read-out: Concentration
  concentration at 2 h: 8.22 ng/mL
In vivo, 120 mg, Male subjects, SAD arm NCT02022306, Dose 120.00, 30 Minutes, read-out: Concentration (ng/ml)
  concentration at 30 min: 1.01 ng/mL
In vivo, 120 mg, Male subjects, SAD arm NCT02022306, Dose 120.00, 168 Hours, read-out: Concentration (ng/ml)
  concentration at 168 h: 10.2 ng/mL
In vivo, 240 mg, Male subjects, SAD arm NCT02022306, Dose 240.00, 312 Hours, read-out: Concentration (ng/ml)
  concentration at 312 h: 4.88 ng/mL
In vivo, 48 h
  TD-6450 concentration: 107.00 ng/mL
In vivo, 72 h
  TD-6450 concentration: 273.00 ng/mL
In vivo, 96 h
  TD-6450 concentration: 123.00 ng/mL
In vivo, 120 h
  TD-6450 concentration: 102.00 ng/mL
In vivo, 144 h
  TD-6450 concentration: 74.40 ng/mL
In vivo, 336 h
  TD-6450 concentration: 6.38 ng/mL
plasma, oral, 60 mg, SAD 60 mg, read-out: Cmax Mean ± SD
  Cmax: 123 ± 60.3 nM
plasma, oral, 60 mg, SAD 60 mg, read-out: t1/2 Mean ± SD (converted)
  half-life: 2.56 ± 0.492 days
male, in vivo
  TD-6450 concentration: 0.00 ng/mL
male, in vivo, 2 h
  TD-6450 concentration: 179.00 ng/mL
male, in vivo, 3 h
  TD-6450 concentration: 273.00 ng/mL
male, in vivo, 4 h
  TD-6450 concentration: 303.00 ng/mL
male, in vivo, 6 h
  TD-6450 concentration: 309.00 ng/mL
male, in vivo, 12 h
  TD-6450 concentration: 216.00 ng/mL
male, in vivo, 24 h
  TD-6450 concentration: 144.00 ng/mL
male, in vivo, 48 h
  TD-6450 concentration: 90.40 ng/mL
male, in vivo, 72 h
  TD-6450 concentration: 61.10 ng/mL
male, in vivo, 96 h
  TD-6450 concentration: 40.80 ng/mL
